The values that follow come from patent publication US9199885B2, “Utilization of iron salts to stabilize and/or disinfect biosolids” (The Administrators of the Tulane Educational Fund, priority 2013, dated 2015).

For series [1], the system named is return activated sludge (RAS) seed microorganisms. The experiment in a line: Aerobic respirometry: specific oxygen uptake rate (SOUR) of iron-dosed, heat-dried biosolids. As to conditions: for time until SOUR reached below the stable criteria requirement: 1.5% ferrate as iron by TS. As to the method:
Thickened sewage sludge was poured into ster[…] & Bird B-Ker polycarbonate jars with a sampling port for flash mixing and flocculation in amounts of 1 L to 2 L. The ferric chloride/ferrate dose was delivered by syringe to the jar test beakers. The ferric chloride dose was calculated by obtaining the total solids content of the sludge sample first and taking 2% of the result. The ferrate dose was calculated after computing the final synthesized concentration of ferrate in buffer solution. Both the ferrate and ferric chloride doses were based on mass rather than volume. The ferrate solution strength was calculated based on mass instead of volume to minimize errors in the dose calculations; these errors are associated with off-gases from the ferrate solution changing the volume of ferrate within the syringe. Of the six jars, one jar of raw sludge served as the control and five jars were used to test various dosages. The ferric chloride was added first while the sludge samples were mixed at a speed of 300 rpm; after thorough mixing (about 10 minutes), the ferrate was added and the mixture was mixed at 300 rpm for about 10 minutes until thoroughly mixed. Well-mixed sludge was then transferred into centrifuge tubes and centrifuged, and then the settled solids were collected and spread on a baking pan and heat dried for about 30 minutes. Batch respirometer tests were conducted by dosing microbial culture with an amount of organic chemical or wastewater followed by monitoring the reactions through measurement of oxygen uptake in aerobic tests or gas production in anoxic and methanogenic tests. Batch tests are transient, non-steady-state reactions in which both substrate and biomass concentrations change throughout the biodegradation reaction. The procedures generally involve the following steps. A sample of wastewater or solution of test chemicals is placed in each of a number of respirometer vessels. Nutrients and trace minerals are added in amounts sufficient to support biological growth and a buffer is added to maintain the pH within an acceptable range. A seed culture is added to provide microorganisms that can degrade the organic constituents in the test samples. A caustic scrubber is suspended within the headspace of the reaction vessel to absorb carbon dioxide (only in instruments using headspace oxygen transfer), and chemicals are added to inhibit nitrification in cases where only aerobic carbonaceous oxidation reactions are to be monitored. The reaction vessels are attached to a device suitable for measuring oxygen uptake or gas production, and oxygen uptake or gas production is measured over time periods ranging from a few minutes to 90 days, depending on the test objectives. The aerobic conditions of respirometry assessments were designed to simulate the scenario that the treated biosolids were fully seeded with an unlimited oxygen supply. The anaerobic conditions mimicked fully seeded biosolids without oxygen. The return activated sludge from the New Orleans' POTW was used as seed for its already acclimated microorganisms. For the same reasons, the effluent was selected as the dilution water to increased moisture content. After the heat drying process, the product was tested for total solids contents. […] The system was then sealed and set up in a 20° C. water bath for real time monitoring on oxygen uptake for 96 hours. pH and ORP values were assessed at the beginning and the end of the tests. The sludge was thickened to achieve a 5% solids content level. After the addition of ferric chloride, ferrate or both followed by centrifugation, the sludge cake was placed in an oven at 80° C. for 30 minutes to mimic the heat drying process. The dried sludge was then tested for stability by adding 98%-99% of moisture content. There were three exogenous variables: buffer, feed and seed. The buffer was 1.5M KH2PO4 at pH 7.0. […]

A short description of series [2]: ORP of treated heat-dried biosolids. It counts as physicochemical. As to conditions: post treatment. As to the method: After the heat drying process, the product was tested for total solids contents. Based on the results, a 2% solution of said product in effluent was made and poured into 600 mL narrow neck glass bottles, along with a seeding of 3000 mg/L for each bottle. The system was then sealed and set up in a 20° C. water bath for real time monitoring on oxygen uptake for 96 hours. pH and ORP values were assessed at the beginning and the end of the tests.

In the next series the test system is biomass. The following applies: endogenous respiration, no added oxygen or substrate; cited from earlier work.

Molecules are shown by their SMILES.

Consider `[O]=[Fe](=[O])([O-])[O-]` [ferrate], for which the “stabilization (SOUR)” value in series [1] (1.3% ferrate as the iron dose, buffer, seed and feed in respirometer) is given as “no stabilization”; in series [1] (ferrate dosages 1.2% to 4.9%, not neutralized with buffer (pH higher than 10), acetate and seed added), “stable biosolids”. Also, the “time until SOUR reached below the stable criteria requirement” value in series [1] (moisture content 98%) was 5 h; in series [1] (moisture content 99%), 9 h. The “ORP levels in the biosolids” value in series [2] was “around 0.1 V”.

Consider `[Cl][Fe]([Cl])[Cl]` [ferric chloride], for which the “stimulation of biomass during dosing” value in the series with biomass is given as “did not stimulate the biomass”. The “stability of heat-dried biosolids” value is reported as “not stable” in series [1] (1.4% to 1.5% ferric chloride, seeded); “stable” in series [1] (ferric chloride-treated, seed not added); “not stable” in series [1] (with addition of seed, ferric chloride doses less than 2.3%). Moreover, in series [1] (1.4% to 1.5% ferric chloride, seeded, for 5 to 10 hours), the SOUR is given as more than 1.5 mg O2/h/g TS. Further, in series [1] (dose larger than 2.3% ferric chloride, seeded), the “time heat-dried biosolids observed to be stable” value was “at least 2 days”. The “ORP levels in the biosolids” value in series [2] is “around 0.1 V”.

`O=S(=O)([O-])[O-].[Fe+2]` [ferrous sulphate]: in the series on biomass, the “stimulation of biomass during dosing” value is “did not stimulate the biomass”.
